Laboratory results as given in US20200262813A1, “1,5,7-TRISUBSTITUTED ISOQUINOLINE DERIVATIVES, PREPARATION THEREOF, AND USE THEREOF IN MEDICINES” (SHANGHAI HAIYAN PHARMACEUTICAL TECHNOLOGY CO., LTD., priority 2016, published 2020).
Read-outs that look alike come from different tables or passages of the source.

Experiments:
[1] = test system: Pfeiffer cells; test: Cell proliferation test (cell counting kit-8, 6 days); assay type: cell-based; settings: 6 days' growth
Description: Cells were harvested by centrifuge and densities were determined using a CounterStar cell counter. Appropriate number of cells were plated in a 96-well culture plate and incubated overnight. Compounds to be tested were 1:3 diluted for 8 gradient points and added into corresponding wells. After 6 days' growth, cell counting kit-8 (Dojindo) was used to detect cell viability and absorbance values were read on Tecan infinite pro.

[2] = target: Recombinant PRC2 (EZH2-Y641F) (Homo sapiens, UniProt Q15910, Y641F); test: In vitro methyltransferase activity test (LANCE Ultra); settings: LANCE Ultra detection, 3 hours reaction;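 further: compounds tested as an 8-point threefold dilution series, fluorescence read after 1 h detection step at room temperature, IC50 derived from a four-parameter curve fit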
Recombinant PRC2 (EZH2-Y641F), sequence (Q15910 whole entry Y641F): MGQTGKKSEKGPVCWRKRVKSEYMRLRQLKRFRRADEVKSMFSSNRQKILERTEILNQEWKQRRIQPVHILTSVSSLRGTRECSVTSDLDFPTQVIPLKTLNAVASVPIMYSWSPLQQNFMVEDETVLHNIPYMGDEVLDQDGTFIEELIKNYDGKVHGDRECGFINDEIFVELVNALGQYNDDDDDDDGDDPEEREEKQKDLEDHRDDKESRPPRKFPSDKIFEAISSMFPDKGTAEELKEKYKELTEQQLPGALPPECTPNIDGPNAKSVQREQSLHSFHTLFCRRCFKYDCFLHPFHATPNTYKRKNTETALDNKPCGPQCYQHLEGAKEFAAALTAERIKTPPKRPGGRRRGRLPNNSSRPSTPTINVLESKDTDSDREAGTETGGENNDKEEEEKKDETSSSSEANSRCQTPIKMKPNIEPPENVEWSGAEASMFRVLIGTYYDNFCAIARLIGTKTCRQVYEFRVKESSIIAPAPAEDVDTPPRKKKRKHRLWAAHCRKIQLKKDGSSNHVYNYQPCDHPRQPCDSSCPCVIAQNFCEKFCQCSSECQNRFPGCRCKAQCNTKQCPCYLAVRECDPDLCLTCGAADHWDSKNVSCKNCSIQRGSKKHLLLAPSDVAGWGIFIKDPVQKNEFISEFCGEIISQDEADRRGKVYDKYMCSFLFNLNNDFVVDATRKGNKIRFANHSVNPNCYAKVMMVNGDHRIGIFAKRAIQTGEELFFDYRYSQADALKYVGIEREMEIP
Recombinant PRC2 (EZH2-Y641F), sequence (O75530 whole entry partner): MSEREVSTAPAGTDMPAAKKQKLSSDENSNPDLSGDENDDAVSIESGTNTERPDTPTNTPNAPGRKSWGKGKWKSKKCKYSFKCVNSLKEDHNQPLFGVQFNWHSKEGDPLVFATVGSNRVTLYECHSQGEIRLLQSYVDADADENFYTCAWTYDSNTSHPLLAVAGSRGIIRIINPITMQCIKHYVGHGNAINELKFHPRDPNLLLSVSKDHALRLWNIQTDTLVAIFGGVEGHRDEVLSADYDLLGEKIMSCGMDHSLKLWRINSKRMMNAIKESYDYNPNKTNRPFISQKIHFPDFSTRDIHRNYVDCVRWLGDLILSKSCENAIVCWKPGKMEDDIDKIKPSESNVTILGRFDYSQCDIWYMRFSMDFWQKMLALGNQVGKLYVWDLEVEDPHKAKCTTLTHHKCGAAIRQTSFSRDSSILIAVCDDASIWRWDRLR
Recombinant PRC2 (EZH2-Y641F), sequence (Q15022 whole entry partner): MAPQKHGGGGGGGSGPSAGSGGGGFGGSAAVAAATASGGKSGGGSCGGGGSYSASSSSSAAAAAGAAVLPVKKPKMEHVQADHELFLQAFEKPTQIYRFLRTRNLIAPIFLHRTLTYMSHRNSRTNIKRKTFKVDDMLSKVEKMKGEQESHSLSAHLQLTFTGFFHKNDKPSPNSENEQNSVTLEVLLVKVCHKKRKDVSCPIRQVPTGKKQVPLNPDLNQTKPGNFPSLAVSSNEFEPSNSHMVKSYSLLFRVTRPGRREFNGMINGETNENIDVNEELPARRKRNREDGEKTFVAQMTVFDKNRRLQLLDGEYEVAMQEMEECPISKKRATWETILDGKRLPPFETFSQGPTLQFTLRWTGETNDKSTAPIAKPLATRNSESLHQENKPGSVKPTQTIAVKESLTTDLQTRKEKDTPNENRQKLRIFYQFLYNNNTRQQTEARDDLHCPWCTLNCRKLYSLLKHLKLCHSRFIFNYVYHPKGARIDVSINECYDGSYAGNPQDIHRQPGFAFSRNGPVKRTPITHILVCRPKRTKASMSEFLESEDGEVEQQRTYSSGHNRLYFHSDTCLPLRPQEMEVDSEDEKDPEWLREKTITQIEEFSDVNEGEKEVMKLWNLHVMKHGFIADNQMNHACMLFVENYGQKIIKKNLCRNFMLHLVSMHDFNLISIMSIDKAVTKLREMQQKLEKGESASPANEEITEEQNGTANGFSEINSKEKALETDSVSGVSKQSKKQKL
Recombinant PRC2 (EZH2-Y641F), sequence (Q09028 whole entry partner): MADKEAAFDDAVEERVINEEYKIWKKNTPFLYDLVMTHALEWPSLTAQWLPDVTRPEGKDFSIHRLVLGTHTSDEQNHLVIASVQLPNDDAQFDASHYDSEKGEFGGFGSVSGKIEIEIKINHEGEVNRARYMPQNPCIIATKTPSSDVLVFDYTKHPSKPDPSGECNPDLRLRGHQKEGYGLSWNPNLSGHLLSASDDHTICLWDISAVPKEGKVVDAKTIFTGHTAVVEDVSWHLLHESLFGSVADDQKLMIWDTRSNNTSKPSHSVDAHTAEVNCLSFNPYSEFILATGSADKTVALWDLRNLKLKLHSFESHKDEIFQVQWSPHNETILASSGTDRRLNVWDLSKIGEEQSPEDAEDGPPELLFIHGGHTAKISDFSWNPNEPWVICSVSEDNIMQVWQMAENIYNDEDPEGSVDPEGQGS
Recombinant PRC2 (EZH2-Y641F), sequence (Q6ZN18 whole entry partner): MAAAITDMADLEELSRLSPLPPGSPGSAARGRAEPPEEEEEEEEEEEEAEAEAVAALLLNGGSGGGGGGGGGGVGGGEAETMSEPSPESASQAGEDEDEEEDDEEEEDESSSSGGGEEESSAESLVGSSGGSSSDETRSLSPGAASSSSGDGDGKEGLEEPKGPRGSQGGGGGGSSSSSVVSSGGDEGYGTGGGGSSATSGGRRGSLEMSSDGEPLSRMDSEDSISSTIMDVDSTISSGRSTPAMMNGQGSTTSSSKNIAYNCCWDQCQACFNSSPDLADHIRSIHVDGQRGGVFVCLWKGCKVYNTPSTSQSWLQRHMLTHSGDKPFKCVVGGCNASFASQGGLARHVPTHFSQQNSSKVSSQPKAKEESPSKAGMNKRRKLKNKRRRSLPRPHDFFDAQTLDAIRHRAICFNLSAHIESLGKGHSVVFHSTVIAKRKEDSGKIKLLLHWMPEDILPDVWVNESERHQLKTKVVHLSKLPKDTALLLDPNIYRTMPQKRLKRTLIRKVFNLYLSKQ

[3] = EZH2 Y641F IC50, Recombinant PRC2 (EZH2-Y641F)

With `CCN(c1cc(-c2ccc(C3CCN(C)CC3)nc2)cc2c(NCc3c(C)cc(C)[nH]c3=O)nccc12)[C@H]1CC[C@H](N(C)C)CC1` [Compound Z-17, 3-((5-(((1R,4R)-4-(dimethylamino)cyclohexyl) (ethyl)amino)-7-(6-(1-methylpiperidine-4-yl)pyridine-3-yl)-isoquinolinylamino)methyl)-4,6-dimethylpyridine-2(1H)-one] the IC50 ([1]; Homo sapiens, Pfeiffer, 144 h) was 768 nM and the IC50 [2, 3] was 13 nM.
With `CCN(c1cc(-c2ccc(CN3CCN(C)CC3)nc2)cc2c(NCc3c(C)cc(C)[nH]c3=O)nccc12)C1CCOCC1` [Compound Z-35] the IC50 [1] was 611 nM and the IC50 [2, 3] was 221 nM.
`CCN(c1cc(-c2ccc(CN3CCCCC3)cc2)cc2c(NCc3c(C)cc(C)[nH]c3=O)nccc12)C1CCC(N(C)C)CC1` (stereo not drawn) [Compound Z-37] was tested, and the IC50 ([1]; Homo sapiens, Pfeiffer, 144 h) was 991 nM and the IC50 [2, 3] was 28 nM.
In the case of `CCN(c1cc(-c2ccc(N3CCOCC3)nc2)cc2c(NCc3c(C)cc(C)[nH]c3=O)nccc12)C1CCC(N(C)C)CC1` (stereo not drawn) [Compound Z-39], the IC50 ([1]; Homo sapiens, Pfeiffer, 144 h) is reported as 507 nM and the IC50 [2, 3] is reported as 16 nM.
`CCN(c1cc(-c2ccc(CN(C)C)cc2)cc2c(NCc3c(C)cc(C)[nH]c3=O)nccc12)C1CCC(N(C)C)CC1` (stereo not drawn) [Compound Z-45] was tested, and the IC50 ([1]; Homo sapiens, Pfeiffer, 144 h) was 599 nM and the IC50 [2, 3] was 38 nM.
With `CCN(c1cc(-c2cnc(N3CCOCC3)nc2)cc2c(NCc3c(C)cc(C)[nH]c3=O)nccc12)[C@H]1CC[C@H](N(C)C)CC1` [Compound Z-46] the IC50 ([1]; Homo sapiens, Pfeiffer, 144 h) was 362 nM and the IC50 [2, 3] was 14 nM.
`CCN(c1cc(-c2ccc(CN3CCN(C)CC3)cc2)cc2c(NCc3c(C)cc(C)[nH]c3=O)nccc12)[C@H]1CC[C@H](N(C)C)CC1` [Compound Z-54] was tested, and the IC50 ([1]; Homo sapiens, Pfeiffer, 144 h) was 614 nM and the IC50 [2, 3] was 19 nM.
Work on `CCN(c1cc(-c2ccc(CN3CCN(C)CC3)nc2)cc2c(NCc3c(C)cc(C)[nH]c3=O)nccc12)[C@H]1CC[C@@H](N(C)C)CC1` [Compound Z-58] yielded an IC50 [1] of 359 nM.
With `CCN(c1cc(-c2cccnc2)cc2c(NCc3c(C)cc(C)[nH]c3=O)nccc12)[C@H]1CC[C@@H](N(C)C)CC1` [Compound Z-64] the IC50 ([1]; Homo sapiens, Pfeiffer, 144 h) was 357 nM and the IC50 [2, 3] was 9 nM.
Work on `CCN(c1cc(-c2cncnc2)cc2c(NCc3c(C)cc(C)[nH]c3=O)nccc12)C1CCC(N(C)C)CC1` (stereo not drawn) [Compound Z-65] yielded an IC50 ([1]; Homo sapiens, Pfeiffer, 144 h) of 972 nM and an IC50 [2, 3] of 52 nM.
Work on `CCN(c1cc(-c2ccc(N3CCOCC3)nc2)cc2c(NCc3c(C)cc(C)[nH]c3=O)nccc12)C1CCN(C(C)C)CC1` [Compound Z-66] yielded an IC50 ([1]; Homo sapiens, Pfeiffer, 144 h) of 766 nM and an IC50 [2, 3] of 159 nM.
Compound `CCN(c1cc(-c2ccc(N3CCOCC3)nc2)cc2c(NCc3c(C)cc(C)[nH]c3=O)nccc12)C1CCC(O)CC1` (stereo not drawn) [Compound Z-70] has an IC50 [1] of 516 nM.
`CCN(c1cc(-c2cnc(N3CCOCC3)nc2)cc2c(NCc3c(C)cc(C)[nH]c3=O)nccc12)C1CCN(C2CC2)CC1` [Compound Z-92] showed an IC50 [1] of 688 nM.
`CCN(c1cc(Nc2cccnc2)cc2c(NCc3c(C)cc(C)[nH]c3=O)nccc12)[C@H]1CC[C@H](N(C)C)CC1` [Compound Z-182] was tested, and the IC50 [2, 3] was 504 nM.
Compound `CCN(c1cc(N2CCN(C)CC2)cc2c(NCc3c(C)cc(C)[nH]c3=O)nccc12)C1CCC(N(C)C)CC1` (stereo not drawn) [Compound Z-187] has an IC50 [2, 3] of 213 nM.
In the case of `CCN(c1cc(Oc2cccnc2)cc2c(NCc3c(C)cc(C)[nH]c3=O)nccc12)[C@H]1CC[C@H](N(C)C)CC1` [Compound Z-188], the IC50 ([2]; read-out: EZH2 Y641F IC50, Recombinant PRC2 (EZH2-Y641F)) is reported as 112 nM.
With `CCN(c1cc(N2CCN(C3CCOCC3)CC2)cc2c(NCc3c(C)cc(C)[nH]c3=O)nccc12)C1CCC(N(C)C)CC1` (stereo not drawn) [Compound Z-189] the IC50 [2, 3] was 307 nM.
In the case of `CCN(c1cc(Oc2ccccc2)cc2c(NCc3c(C)cc(C)[nH]c3=O)nccc12)[C@H]1CC[C@H](N(C)C)CC1` [Compound Z-190], the IC50 [2, 3] is reported as 472 nM.
For `CCN(c1cc(-c2ccc(N3CCN(C)CC3)nc2)cc2c(NCc3c(OC)cc(C)[nH]c3=O)nccc12)C1CCN(C(C)C)CC1` [Compound Z-191], the IC50 [2, 3] was 206 nM.
`CCc1cc(C)[nH]c(=O)c1CNc1nccc2c(N(CC)C3CCC(N(C)C)CC3)cc(Cl)cc12` (stereo not drawn) [Compound Z-204] gave an IC50 [2, 3] of 24 nM.
`CCN(c1cc(Cl)cc2c(NCc3c(C)cc(C)[nH]c3=O)nccc12)C1CCC(N2CCC2)CC1` (stereo not drawn) [Compound Z-205] gave an IC50 [2, 3] of 35 nM.
`CCN(c1cc(Cl)cc2c(NCc3c(C)cc(C)[nH]c3=O)nccc12)C1CC2(CNC2)C1` [Compound Z-207] showed an IC50 [2, 3] of 32 nM.
With `CCN(c1cc(C2CCN(C)CC2)cc2c(NCc3c(C)cc(C)[nH]c3=O)nccc12)C1CCC(O)CC1` (stereo not drawn) [Compound Z-212] the IC50 [2, 3] was 185 nM.
`CCN(c1cc(C(C)C)cc2c(NCc3c(C)cc(C)[nH]c3=O)nccc12)[C@H]1CC[C@H](N(C)C)CC1` [Compound Z-214] was tested, and the IC50 [2, 3] was 373 nM.
`CCN(c1cc(-c2ccc(N3CCN(C)CC3)nc2)cc2c(NCc3c(C)n(C)[nH]c3=O)nccc12)C1CCC(N(C)C)CC1` (stereo not drawn) [Compound Z-216, 4-((5-((4-(dimethylamino)cyclohexyl)(ethyl)amino)-7-(6-(4-methylpiperazin-1-yl)pyridine-3-yl)isoquinolin-1-ylamino)methyl)-1,5-dimethyl-H-pyrazol-3-(2H)-one] was tested, and the IC50 [2, 3] was 365 nM.
For `CCN(c1cc(-c2cnc(N3CCN(C)CC3)nc2)cc2c(NCc3c(C)cc(C)[nH]c3=O)nccc12)C1CCC(C)(O)CC1` (stereo not drawn) [Compound Z-221, 3-((5-(ethyl(4-hydroxy-4-methylcyclohexyl)amino)-7-(2-(4-methylpiperazin-1-yl)pyrimidin-5-yl)isoquinolin-1-ylamino)methyl)-4,6-dimethyl pyridin-2(1H)-one], the IC50 [2, 3] was 194 nM.
Compound `CCN(c1cc(-c2ccc(N3CCN(C)CC3)nc2)cc2c(NCc3c(C)cc(C)[nH]c3=O)ncc(F)c12)C1CCC(N(C)C)CC1` (stereo not drawn) [Compound Z-223, 3-((5-((4-(dimethylamino)cyclohexyl)(ethyl)amino)-4-fluoro-7-(6-(4-methylpiperazin-1-yl)pyridin-3-yl)isoquinolin-1-ylamino)methyl)-4,6-dimethyl-2(1H)-one] has an IC50 [2, 3] of 45 nM.
`CCN(c1cc(-c2ccc(N3CCN(C)CC3)nc2)cc2c(NCc3c(C)cc(C)[nH]c3=O)nccc12)C1CCC(NC(C)=O)CC1` (stereo not drawn) [Compound Z-225, N-(4-((1-((4,6-dimethyl-2-oxo-1,2-dihydropyridin-3-yl)methylamino)-7-(6-(4-methylpiperazin-1-yl)pyridin-3-yl)isoquinolin-5-yl) (ethyl)amino)cyclohexyl) acetamide] was tested, and the IC50 [2, 3] was 68 nM.
Work on `CCN(c1cc(C(N)=O)cc2c(NCc3c(C)cc(C)[nH]c3=O)nccc12)[C@H]1CC[C@H](N(C)C)CC1` [Compound Z-227, 1-((4,6-dimethyl-2-oxo-1,2-dihydropyridin-3-yl)methylamino)-5-(((1R,4R)-4-(dimethylamino)cyclohexyl) (ethyl)amino) isoquinoline-7-carboxamide] yielded an IC50 [2, 3] of 64 nM.
`CCN(c1cc(Cl)cc2c(NCc3c(C)cc(C)[nH]c3=O)nccc12)C1CCN(S(C)(=O)=O)CC1` [Compound Z-229] was tested, and the IC50 [2, 3] was 429 nM.
Work on `CCN(c1c(F)c(-c2ccc(N3CCN(C)CC3)nc2)cc2c(NCc3c(C)cc(C)nc3O)nccc12)[C@H]1CC[C@@H](N(C)C)CC1` [Compound Z-231, 3-((5-(((1S,4S)-4-(dimethylamino)cyclohexyl) (ethyl)amino)-6-fluoro-7-(6-(4-methylpiperazin-1-yl)pyridin-3-yl)isoquinolin-1-ylamino)methyl)-4,6-dimethyl-2(1H)-one] yielded an IC50 [2, 3] of 174 nM.
For `CCN(c1cc(C(C)C)cc2c(NCc3c(C)cc(C)[nH]c3=O)nccc12)C1CCNCC1` [Compound Z-235, 3-((5-(ethyl (piperidin-4-yl)amino)-7-isopropylisoquinolin-1-ylamino)methyl)-4,6-dimethyl-2(1H)-one], the IC50 [2, 3] was 129 nM.
